Measurements from patent EP0415470A2, “Aminopeptidase” (CAMPINA MELKUNIE B.V., priority 1989, dated 1991).
Entries after “also recorded” stand apart in the source; their conditions may differ. Each block holds one molecule with its values, some of them ahead of it. Where a SMILES comes first, the peptide text is derived from it. The star is where a group is joined. pNA = O=[N+]([O-])c1ccc(N*)cc1

Assays:
[1] = target: T1, aminopeptidase of L. lactis subsp. cremoris Wg2 (Lactococcus lactis subsp. cremoris, UniProt P0C2T8); assay type: biochemical
T1 sequence (P0C2T8 1-846): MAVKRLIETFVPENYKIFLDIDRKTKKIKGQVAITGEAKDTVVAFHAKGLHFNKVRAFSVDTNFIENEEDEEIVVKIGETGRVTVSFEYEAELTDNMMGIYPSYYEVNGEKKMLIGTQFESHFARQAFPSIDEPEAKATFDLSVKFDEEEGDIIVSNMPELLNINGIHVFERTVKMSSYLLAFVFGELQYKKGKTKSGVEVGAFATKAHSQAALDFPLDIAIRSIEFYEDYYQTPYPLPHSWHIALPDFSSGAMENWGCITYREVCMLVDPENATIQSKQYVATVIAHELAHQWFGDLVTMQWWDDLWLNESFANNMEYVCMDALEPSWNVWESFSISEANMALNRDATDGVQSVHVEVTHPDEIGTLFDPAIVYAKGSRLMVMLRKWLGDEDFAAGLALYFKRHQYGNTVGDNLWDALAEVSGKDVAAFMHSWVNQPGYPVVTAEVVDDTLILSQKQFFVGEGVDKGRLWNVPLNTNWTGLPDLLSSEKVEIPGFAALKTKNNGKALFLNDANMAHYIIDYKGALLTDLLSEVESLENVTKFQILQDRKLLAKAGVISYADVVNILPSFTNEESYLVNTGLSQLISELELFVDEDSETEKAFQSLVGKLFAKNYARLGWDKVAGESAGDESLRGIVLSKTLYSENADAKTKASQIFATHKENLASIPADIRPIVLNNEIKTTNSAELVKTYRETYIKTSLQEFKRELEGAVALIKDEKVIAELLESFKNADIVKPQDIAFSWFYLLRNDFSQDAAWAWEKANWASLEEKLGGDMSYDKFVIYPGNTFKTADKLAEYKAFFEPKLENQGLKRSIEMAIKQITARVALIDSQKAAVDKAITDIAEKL

[2] = target: T1, aminopeptidase of L. lactis subsp. cremoris Wg2; assay type: biochemical; remark: listed apart in the source
[3] = target: T1, aminopeptidase of L. lactis subsp. cremoris Wg2; experiment: Hydrolysis of lysyl-p-nitroanilide / X-p-nitroanilide substrates (release of p-nitroanilide at 410 nm); assay type: biochemical; set-up: The cell extract obtained after sonication and centrifugation of L. lactis subsp. cremoris Wg2; endogenous in cells; host or cells: Proteinase-negative variant of Lactococcus lactis subsp. cremoris Wg2; Enzyme purified from the cell-free extract by DEAE-Sephacel, phenyl-Sepharose, Sephadex G-100 SF and MA7P HPLC; not recombinant; conditions: relative hydrolysis velocity of X-p-nitroanilide substrates
Method: Hydrolysis of lysyl-p-nitroanilide was determined by the method of Exterkate, Neth. Milk Diary J. 29, 1975, 303-318. A 2 mM solution of lysyl-p-nitroanilide was incubated for 15 minutes with a suitable amount of enzyme. The reaction was stopped by adding acetic acid up to a final concentration of 10%, and the amount of p-nitroanilide was measured at 410 nm (Hitachi U-1100 spectrophotometer).
All measurements of enzyme activities were carried out at 30°C in 20 mM HEPES pH 7, unless specified.
The highest activity was found for lysyl-p-nitroanilide and to a lesser extent for leucyl-p-nitroanilide. […] The affinity of the enzyme for lysyl-p-nitroanilide was determined.

[4] = target: T1, aminopeptidase of L. lactis subsp. cremoris Wg2; experiment: as above; conditions: for Relative activity (%): relative hydrolysis velocity of X-p-nitroanilide substrates
[5] = target: T1, aminopeptidase of L. lactis subsp. cremoris Wg2; experiment: Hydrolysis of peptides detected by thin-layer chromatography (TLC); assay type: biochemical; set-up: The cell extract obtained after sonication and centrifugation of L. lactis subsp. cremoris Wg2; endogenous in cells; host or cells: Proteinase-negative variant of Lactococcus lactis subsp. cremoris Wg2; Enzyme purified from the cell-free extract by DEAE-Sephacel, phenyl-Sepharose, Sephadex G-100 SF and MA7P HPLC; not recombinant; key to Activity: + : hydrolysis; - : no hydrolysis to be observed; conditions: for hydrolysis of peptides (in words): peptide as substrate of the aminopeptidase; for Activity: substrate specificity, 2 mM substrate, 20 mM HEPES pH 7, 60 min. at 30°C, TLC
Method: Hydrolysis of several peptides was detected by thin-­layer chromatography (TLC). Peptidase activity was determined as follows: the reaction mixture containing 2 mM substrate in 20 mM 4-(2-hydroxyethyl)-1-piperazine-ethanesulphonic acid (HEPES) pH 7 and a suitable amount of enzyme was incubated for 60 min. at 30°C. The reaction mixture (10 microliter) was then placed on a precoated silica gel 60 plate having a layer thickness of 0.25 cm (Merck, Darmstadt, West-Germany). A 75% (wt./vol.) phenol/water mixture and in some cases a 4/1/1 (vol./vol./vol.) mixture of n-butanol, acetic acid and water was used as mobile phase. As a control, 2 mM of each standard peptide was also placed on the plate. The silica gels were coloured by spraying them with 0.1% (wt./vol.) ninhydrin in 99% ethanol. Peptides and amino acids became visible after incubation of the silica gel in an oven for 5 min. at 80°C.

[6] = substrate: NCCCCC(N)C(=O)Nc1ccc([N+](=O)[O-])cc1; experiment: purified protein, by the assay type; conditions: other: Lineweaver-Burk plot, substrate of the aminopeptidase; pH 7.0; 30.0 °C

Molecule: COC(CNC(=O)c1ccccc1OCC(=O)O)[CH2][Hg][OH] (stereo not drawn) [mersalyl, O-(3-hydroxymercuri-2-methoxypropyl) carbamyl phenoxyacetate]
effect of chemical reagents on the aminopeptidase activity (in words) [1]: completely inhibited; also recorded: strong inhibition

Molecule: OCCS [β-mercaptoethanol]
effect of chemical reagents on the aminopeptidase activity (in words) [1]: no inhibitory effect; also recorded: insensitive | inactivating effects of pCMB and mersalyl undone by reducing agent (in words) [2]: completely undone

Molecule: C[C@H](N)C(=O)N1CCC[C@H]1C(=O)Nc1ccc([N+](=O)[O-])cc1 [Ala-Pro-pNA] (H-Ala-Pro-pNA)
Relative activity (%) [3]: 4%

hydrolysis of p-nitroanilide substrates (in words) [4]: hydrolyses | maximum peptide hydrolysis velocity ([4]; Lineweaver-Burk plot): 1 millimol/min./mg | Relative activity (%) [4]: 100%
Molecule: NCCCCC(N)C(=O)Nc1ccc([N+](=O)[O-])cc1 (stereo not drawn) [Lys-pNA, lysyl-p-nitroanilide]

Molecule: Bradykinin (RPPGFSPFR; Bradykinin; UniProt P01042 381-389, looked up)
hydrolysis of peptides (in words) [5]: hydrolyses; also recorded: can also act on | Activity [5]: +

Molecule: N[C@@H](CCC(=O)O)C(=O)Nc1ccc([N+](=O)[O-])cc1 [Glu-pNA]
Relative activity (%) [4]: < 1%

Relative activity (%) [4]: 8%
Molecule: CSCCC(N)C(=O)Nc1ccc([N+](=O)[O-])cc1 (stereo not drawn) [Met-pNA, methionyl-p-nitroanilide]

Molecule: OC(CS)C(O)CS (stereo not drawn) [DTT, dithiotreitol]
effect of chemical reagents on the aminopeptidase activity (in words) [1]: no inhibitory effect; also recorded: insensitive | inactivating effects of pCMB and mersalyl undone by reducing agent (in words) [2]: completely undone

Molecule: O=C(O)CN(CCN(CC(=O)O)CC(=O)O)CC(=O)O [EDTA]
inhibition of the enzyme activity by chelating agents (in words) [1]: complete inhibition; also recorded: sensitivity

Molecule: NC(Cc1ccccc1)C(=O)Nc1ccc([N+](=O)[O-])cc1 (stereo not drawn) [Phe-pNA]
Relative activity (%) [4]: 4%

Molecule: c1cnc2c(c1)ccc1cccnc12 [1,10-phenanthroline]
inhibition of the enzyme activity by chelating agents (in words) [1]: complete inhibition; also recorded: sensitivity

Molecule: carboxybenzoxy-phenylalanyl-alanine
hydrolysis of peptides (in words) [5]: does not seem capable of hydrolysis

Molecule: CCN1C(=O)C=CC1=O [NEM, N-ethylmaleimide]
effect of chemical reagents on the aminopeptidase activity (in words) [1]: inhibitory effect; also recorded: strong inhibition

Molecule: O=C(O)c1cc[c]([Hg][Cl])cc1 [pCMB, p-chloromercuribenzoate]
effect of chemical reagents on the aminopeptidase activity (in words) [1]: completely inhibited; also recorded: strong inhibition

Molecule: benzoyl-glycyl-lysine
hydrolysis of peptides (in words) [5]: does not seem capable of hydrolysis

Molecule: [Ca+2] [Ca⁺⁺]
inhibitory effect of divalent cations on the enzyme activity (in words) [1]: no inhibitory effect at all | restoration of the activity of the enzyme treated with 1,10-phenanthroline (in words) [1]: could not restore the enzyme activity

Molecule: Phe-Leu
hydrolysis of peptides (in words) [5]: does not prove capable of significant hydrolysis | Activity [5]: -

Molecule: carbobenzoxy-prolylalanine
hydrolysis of peptides (in words) [5]: does not seem capable of hydrolysis

Molecule: CC(N)C(=O)Nc1ccc([N+](=O)[O-])cc1 (stereo not drawn) [Ala-pNA]
Relative activity (%) [4]: 4%

Molecule: PMSF
effect of chemical reagents on the aminopeptidase activity (in words) [1]: insensitive

Molecule: [Mg+2] [Mg⁺⁺]
inhibitory effect of divalent cations on the enzyme activity (in words) [1]: no inhibitory effect at all | restoration of the activity of the enzyme treated with 1,10-phenanthroline (in words) [1]: could not restore the enzyme activity

Molecule: NCC(=O)Nc1ccc([N+](=O)[O-])cc1 [Gly-pNA]
Relative activity (%) [4]: < 1%

Molecule: O=S(=O)(O)c1cc[c]([Hg][Cl])cc1 [pCMBS, p-chloromercuribenzenesulphonate]
effect of chemical reagents on the aminopeptidase activity (in words) [1]: completely inhibited; also recorded: strong inhibition

hydrolysis of p-nitroanilide substrates (in words) [4]: hydrolyses | Relative activity (%) [4]: 24%
Molecule: CC(C)CC(N)C(=O)Nc1ccc([N+](=O)[O-])cc1 (stereo not drawn) [Leu-pNA, leucyl-p-nitroanilide]

Molecule: alanyl-alanine [Ala-Ala]
hydrolysis of peptides (in words) ([5]; listed as ala-ala): does not prove capable of significant hydrolysis | hydrolysis of peptides (in words) ([5]; listed as alanyl-alanine): not | Activity [5]: -

Molecule: Phe-Val
hydrolysis of peptides (in words) [5]: does not prove capable of significant hydrolysis | Activity [5]: -

Molecule: Leu-Leu
hydrolysis of peptides (in words) [5]: hydrolyses | Activity [5]: +

Molecule: NC(=O)CI [iodoacetamide]
effect of chemical reagents on the aminopeptidase activity (in words) [1]: inhibitory effect; also recorded: strong inhibition

Molecule: O=C(Nc1ccc([N+](=O)[O-])cc1)C1CCCN1 (stereo not drawn) [Pro-pNA]
Relative activity (%) [4]: < 1%

B1: aminopeptidase of L. lactis subsp. cremoris Wg2 (Lactococcus cremoris) (protein)
chain: MAVKRLIETFVPENYKIFLDIDRKTKKIKGQVAITGEAKDTVVAFHAKGLHFNKVRAFSVDTNFIENEEDEEIVVKIGETGRVTVSFEYEAELTDNMMGIYPSYYEVNGEKKMLIGTQFESHFARQAFPSIDEPEAKATFDLSVKFDEEEGDIIVSNMPELLNINGIHVFERTVKMSSYLLAFVFGELQYKKGKTKSGVEVGAFATKAHSQAALDFPLDIAIRSIEFYEDYYQTPYPLPHSWHIALPDFSSGAMENWGCITYREVCMLVDPENATIQSKQYVATVIAHELAHQWFGDLVTMQWWDDLWLNESFANNMEYVCMDALEPSWNVWESFSISEANMALNRDATDGVQSVHVEVTHPDEIGTLFDPAIVYAKGSRLMVMLRKWLGDEDFAAGLALYFKRHQYGNTVGDNLWDALAEVSGKDVAAFMHSWVNQPGYPVVTAEVVDDTLILSQKQFFVGEGVDKGRLWNVPLNTNWTGLPDLLSSEKVEIPGFAALKTKNNGKALFLNDANMAHYIIDYKGALLTDLLSEVESLENVTKFQILQDRKLLAKAGVISYADVVNILPSFTNEESYLVNTGLSQLISELELFVDEDSETEKAFQSLVGKLFAKNYARLGWDKVAGESAGDESLRGIVLSKTLYSENADAKTKASQIFATHKENLASIPADIRPIVLNNEIKTTNSAELVKTYRETYIKTSLQEFKRELEGAVALIKDEKVIAELLESFKNADIVKPQDIAFSWFYLLRNDFSQDAAWAWEKANWASLEEKLGGDMSYDKFVIYPGNTFKTADKLAEYKAFFEPKLENQGLKRSIEMAIKQITARVALIDSQKAAVDKAITDIAEKL
Km [6]: 550 µM | Vmax [6]: 1000 µmol/min. mg protein | kcat [6]: 1580 s⁻¹
